Source: patent publication US7179825B2, “Retinoic acid mimetic anilides” (Janssen Pharmaceutica N.V., priority 1997, dated 2007)

System: Ovariectomized rats
Test: Vaginal keratinization test on ovariectomized rats (Example C.2)
Format: in vivo
Conditions: Rattus norvegicus, po, estradiol undecylate induced keratinization, per os once daily on days 1-3, active dose = 50% of rats show complete suppression, read-out: LAD (lowest active dose)
From the text: The property to delay the metabolism of retinoic acid can be evidenced in various in vitro and in vivo experiments. A particular in vitro procedure is described in example C.1 and tests the inhibitory activity of the compounds of formula (I) on the metabolism of retinoic acid in human breast cancer cells. The compounds of the present invention were also effective in suppressing induced vaginal keratinization effects in ovariectomized rats as is described in example C.2.
“Vaginal Keratinization Test on Ovariectomized Rats”
Ovariectomized rats were injected subcutaneously with a sesame oil solution containing 100 μg of estradiol undecylate in a volume of 0.1 ml per 100 g body weight and control animals were injected with sesame oil. On day one, two and three, test animals were treated once daily with a per os dose of the test compound and control animals with the drug vehicle (PEG 200). One day after the last treatment, the animals were sacrificed and their vaginas were processed for histological evaluation according to the method described in J. Pharmacol. Exp. Ther. 261(2), 773–779 (1992). A dose at which 50% of the tested rats show complete suppression of the estradiol undecylate induced keratinization effects is defined as an active dose. Table 23 lists the lowest active dose (LAD in mg/kg) of the compounds of formula (I) which were tested.

Structure (SMILES)	minimal effective dose
CCC(CC)C(c1ccc(NC(=O)CN2CCN(C)CC2)cc1)n1cncn1 (racemic) [Compound 15, (±)-N-[4-[2-ethyl-1-(1H-1,2,4-triazol-1-yl)butyl]phenyl]-4-methyl-1-piperazineacetamide]	> 2.5 mg/kg
CCC(CC)C(c1ccc(NC(=O)C2CCNCC2)cc1)n1ccnc1.Cl (racemic) [Compound 57, (±)-N-[4-[2-ethyl-1-(1H-imidazol-1-yl)butyl]-phenyl]4-piperidinecarboxamide monohydrochloride]	> 5 mg/kg
CC(=O)Nc1ccc(C(C(C)C)n2ccnc2)cc1 (racemic) [Compound 521, (±)-N-[4-[1-(1H-imidazol-1-yl)-2-methylpropyl]phenyl]acetamide]	10 mg/kg
CCC(CC)C(c1ccc(NC(=S)Nc2nc3ccccc3s2)cc1)n1ccnc1 (racemic) [Compound 705, (±)-N-(2-benzothiazolyl)-N′-[4-[1-(1H-imidazol-1-yl)-2-ethylbutyl]phenyl]-thiourea]	> 5 mg/kg

Same assay, conditions: estradiol undecylate induced keratinization, per os once daily on days 1-3, active dose = 50% of rats show complete suppression

Structure (SMILES)	LAD (lowest active dose)
CC(C(c1ccc(NC(=O)CCN2CCN(C)CC2)cc1)n1ccnc1)N(C)C (mixture of isomers) [Compound 354]	>5.00 mg/kg
CCCCN(C)C(C)C(c1ccc(NC(C)=O)cc1)n1ccnc1 (mixture of isomers) [Compound 562]	5.00 mg/kg
CCN(C)C(C)C(c1ccc(NC(C)=O)cc1)n1ccnc1 (mixture of isomers) [Compound 566]	5.00 mg/kg
CCCN(C)C(C)C(c1ccc(NC(C)=O)cc1)n1ccnc1 (mixture of isomers) [Compound 570]	>5.00 mg/kg
CC(=O)Nc1ccc(C(C(C)N(Cc2ccccc2)Cc2ccccc2)n2ccnc2)cc1 (mixture of isomers) [Compound 572]	>5.00 mg/kg
CCC(CC)C(c1ccc(NC(=O)CN2CCCCC2)cc1)n1ccnc1 (racemic) [Compound 43]	2.50 mg/kg
CCC(CC)C(c1ccc(NC(=O)CN2CCN(C)CC2)cc1)n1ccnc1 (racemic) [Compound 44]	2.50 mg/kg
CCC(CC)C(c1ccc(NC(=O)C2CCN(C)CC2)cc1)n1ccnc1 (racemic) [Compound 59]	>2.50 mg/kg
CCC(CC)C(c1ccc(NC(=O)Cc2ccc(OC)c(Cl)c2)cc1)n1cncn1 (racemic) [Compound 74]	2.50 mg/kg
CCC(CC)C(c1ccc(NC(=O)Cc2c(OC)cccc2OC)cc1)n1ccnc1 (racemic) [Compound 114]	2.50 mg/kg
CC(C)C(c1ccc(NC(=O)c2cc3ccccc3[nH]2)cc1)n1ccnc1 (racemic) [Compound 178]	>10.00 mg/kg
CN(C)CC(c1ccc(NC(=O)Cc2ccc(Cl)cc2)cc1)n1ccnc1 (racemic) [Compound 375]	>5.00 mg/kg
COc1ccc(CC(=O)Nc2ccc(C(C(C)CO)n3ccnc3)cc2)cc1OC (racemic) [Compound 386, (±)-(A)-3,4-dimethoxy-N-[4-[1-(1H-imidazol-1-yl)-2-(hydroxymethyl)propyl]phenyl]benzeneacetamide]	>2.50 mg/kg
COc1ccc(CC(=O)Nc2ccc(C(C(C)CO)n3ccnc3)cc2)cc1OC (racemic) [Compound 394, (±)-(B)-3,4-dimethoxy-N-[4-[1-(1H-imidazol-1-yl)-2-(hydroxymethyl)propyl]phenyl]-benzeneacetamide]	>2.50 mg/kg
COCC(c1ccc(NC(=O)Cc2ccc(OC)c(OC)c2)cc1)n1ccnc1 (racemic) [Compound 397]	>2.50 mg/kg
CNC(C)C(c1ccc(NC(=O)Cc2ccc(OC)c(OC)c2)cc1)n1ccnc1 (racemic) [Compound 400, (±)-(A)-3,4-dimethoxy-N-[4-[1-(1H-imidazol-1-yl)-2-(methylamino)propyl]phenyl]benzeneacetamide]	>2.50 mg/kg
COc1ccc(CC(=O)Nc2ccc(C(C(C)O)n3ccnc3)cc2)cc1OC.O (racemic) [Compound 402, (±)-(B)-3,4-dimethoxy-N-[4-[2-hydroxy-1-(1H-imidazol-1-yl)propyl]phenyl]benzeneacetamide monohydrate]	>5.00 mg/kg
Cc1ccc(CC(=O)Nc2ccc(C(CN(C)C)n3ccnc3)cc2)cc1C (racemic) [Compound 433]	>2.50 mg/kg
COc1ccc(C(=O)Nc2ccc(C(CN(C)C)n3ccnc3)cc2)cc1OC (racemic) [Compound 434]	>2.50 mg/kg
CN(C)CC(c1ccc(NC(=O)N2CCN(C)CC2)cc1)n1ccnc1 (racemic) [Compound 436]	>5.00 mg/kg
CC(=O)Nc1ccc(C(C=CC(C)C)n2ccnc2)cc1 (racemic) [Compound 532]	>10.00 mg/kg
CC(=O)Nc1ccc(C(C(C)N(C)C)n2cncn2)cc1 (racemic) [Compound 631, (±)-(B)-N-[4-[2-(dimethylamino)-1-(1H-1,2,4-triazol-1-yl)propyl]phenyl]acetamide]	>2.50 mg/kg

Structure (SMILES)	LAD (lowest active dose)
CCCC(C)C(c1ccc(NC(=O)Cc2ccc(Cl)cc2)cc1)n1cncn1 (racemic) [Compound 638]	>2.50 mg/kg
CCC(CC)C(c1ccc(NC(=S)Nc2nc3ccccc3s2)cc1)n1cncn1 (racemic) [Compound 706]	5.00 mg/kg
O=C(Nc1ccc(C(c2cccc(C(F)(F)F)c2)n2ccnc2)cc1)Nc1ccccc1F (racemic) [Compound 714]	2.50 mg/kg
COc1ccc(NC(=O)Nc2ccc(C(c3cccc(C(F)(F)F)c3)n3ccnc3)cc2)cc1 (racemic) [Compound 716]	>2.50 mg/kg
COc1ccc(NC(=O)Nc2ccc(C(CN(C)C)n3ccnc3)cc2)cc1OC (racemic) [Compound 721]	>2.50 mg/kg
CCCC(c1ccc(NC(=O)Cc2ccc(Cl)cc2)cc1)(C(CC)CC)n1ccnc1 (racemic) [Compound 766]	>2.50 mg/kg
CCC(CC)C(CC)(c1ccc(NC(=O)Cc2ccc(Cl)cc2)cc1)n1ccnc1 (racemic) [Compound 768]	>2.50 mg/kg
CCC(CC)C(c1ccc(NC(=O)C(O)c2ccc(Cl)cc2)cc1)n1cncn1 (single isomer, unassigned) [Compound 20]	2.50 mg/kg
CCOc1ccc(CCC(=O)Nc2ccc(C(C(CC)CC)n3ccnc3)cc2)cc1 (single isomer, unassigned) [Compound 62]	>5.00 mg/kg
COc1ccc(CC(=O)Nc2ccc(C(C(C)N(C)C)n3cncn3)cc2)cc1OC (single isomer, unassigned) [Compound 278]	2.50 mg/kg
COc1ccc(CC(=O)Nc2ccc(C(C(C)N(C)C)n3cncn3)cc2)cc1Cl (single isomer, unassigned) [Compound 279]	2.50 mg/kg
Cc1ccc(CC(=O)Nc2ccc(C(C(C)N(C)C)n3cncn3)cc2)cc1C (single isomer, unassigned) [Compound 280]	>2.50 mg/kg
COc1ccc(CC(=O)Nc2ccc(C(C(C)N(C)C)n3cncn3)cc2)cc1C (single isomer, unassigned) [Compound 281]	>2.50 mg/kg
CC(C(c1ccc(NC(=O)Cc2ccc(Cl)cc2)cc1)n1cncn1)N(C)C (single isomer, unassigned) [Compound 283]	2.50 mg/kg
CC(C(c1ccc(NC(=O)Cc2ccc(O)c(Cl)c2)cc1)n1cncn1)N(C)C (single isomer, unassigned) [Compound 284]	2.50 mg/kg
CCOc1ccc(CC(=O)Nc2ccc(C(C(C)N(C)C)n3cncn3)cc2)cc1OCC (single isomer, unassigned) [Compound 285]	>2.50 mg/kg
COc1ccc(CC(=O)Nc2ccc(C(C(C)N(C)C)n3cncn3)cc2)cc1C (single isomer, unassigned) [Compound 286]	>2.50 mg/kg
COc1ccc(CC(=O)Nc2ccc(C(C(C)N(C)C)n3cncn3)cc2)cc1OC (single isomer, unassigned) [Compound 287]	>2.50 mg/kg
COc1cc(CC(=O)Nc2ccc(C(C(C)N(C)C)n3cncn3)cc2)ccc1C (single isomer, unassigned) [Compound 294]	>2.50 mg/kg
COc1cc(CC(=O)Nc2ccc(C(C(C)N(C)C)n3cncn3)cc2)ccc1C (single isomer, unassigned) [Compound 295]	>2.50 mg/kg
CCOc1ccc(CC(=O)Nc2ccc(C(C(C)N(C)C)n3ccnc3)cc2)cc1OCC (single isomer, unassigned) [Compound 300]	>2.50 mg/kg
